Source: patent US8921389B2, “Naphthyridine derivatives as inhibitors of hypoxia inducible factor (HIF) hydroxylase” (Fibrogen, Inc., priority 2011, dated 2014)

Target: HIF-PH2 (EGLN1) (Homo sapiens (Human), UniProt Q9GZT9)
Experiment: HIF-PH assay (14CO2 capture, peptide-dependent turnover)
Format: biochemical
Conditions: enzyme inhibition against HIF-PH2; peptide-dependent percent turnover
Source text: Ketoglutaric acid α-[1-^14C]-sodium salt, alpha-ketoglutaric acid sodium salt, and HPLC purified peptide may be obtained from commercial sources, e.g., Perkin-Elmer (Wellesley Mass.), Sigma-Aldrich, and SynPep Corp. (Dublin Calif.), respectively. […] For example, a HIF peptide for use in the HIF-PH assay is [methoxycoumarin]-[…]-amide. HIF-PH, e.g., HIF-PH2 (EGLN1), can be expressed in, e.g., insect Hi5 cells, and partially purified, e.g., through a SP ion exchange chromatography column. […] Reactions are initiated by addition of HIF-PH enzyme.
The peptide-dependent percent turnover is calculated by subtracting percent turnover in the absence of peptide from percent turnover in the presence of substrate peptide. Percent inhibition and IC50 are calculated using peptide-dependent percent turnover at given inhibitor concentrations. Calculation of IC50 values for each inhibitor is conducted using GraFit software (Erithacus Software Ltd., Surrey UK).
Representative compounds of the disclosure were analyzed using the HIF-PH assay described above.

Chain of HIF-PH2 (EGLN1) (Q9GZT9 whole entry): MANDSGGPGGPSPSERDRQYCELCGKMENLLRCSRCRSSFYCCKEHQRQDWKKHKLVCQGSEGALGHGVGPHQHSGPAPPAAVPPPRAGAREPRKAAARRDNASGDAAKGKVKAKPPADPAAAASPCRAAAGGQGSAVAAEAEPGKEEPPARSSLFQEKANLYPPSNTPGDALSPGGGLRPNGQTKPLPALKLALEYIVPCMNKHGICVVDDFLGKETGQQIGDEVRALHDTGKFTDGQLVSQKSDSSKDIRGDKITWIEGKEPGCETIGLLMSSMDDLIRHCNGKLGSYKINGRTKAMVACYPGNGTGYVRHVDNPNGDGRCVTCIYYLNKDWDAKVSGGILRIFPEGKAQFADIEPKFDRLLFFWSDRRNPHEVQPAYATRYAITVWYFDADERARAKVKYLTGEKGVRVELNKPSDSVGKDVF

Structure (SMILES)	IC50 [µM]
N#Cc1nc(C(=O)NCCCCC(=O)O)c(O)c2cc(-c3ccccc3)c(=O)n(Cc3ccccc3)c12 [Example 24, 5-[(1-Benzyl-8-cyano-5-hydroxy-2-oxo-3-phenyl-1,2-dihydro-[1,7]naphthyridine-6-carbonyl)-amino]-pentanoic acid]	> 200
N#Cc1nc(C(=O)NCCN2CCOCC2)c(O)c2ccn(Cc3ccccc3)c(=O)c12 [Example 59, 7-Benzyl-1-cyano-4-hydroxy-8-oxo-7,8-dihydro-[2,7]naphthyridine-3-carboxylic acid (2-morpholin-4-yl-ethyl)-amide]	> 200
N#Cc1nc(C(=O)NCCCCC(=O)O)c(O)c2ccn(Cc3ccccc3)c(=O)c12 [Example 52, 5-[(7-Benzyl-1-cyano-4-hydroxy-8-oxo-7,8-dihydro-[2,7]naphthyridine-3-carbonyl)-amino]-pentanoic acid]	> 200
CS(=O)(=O)NCCNC(=O)c1ncc2ccc(=O)n(Cc3ccccc3)c2c1O [Example 111, 1-Benzyl-8-hydroxy-2-oxo-1,2-dihydro-[1,6]naphthyridine-7-carboxylic acid (2-methanesulfonylamino-ethyl)-amide]	> 200
CC(C)NC(=O)NCCNC(=O)c1ncc2c(=O)n(Cc3ccccc3)ccc2c1O [Example 89, 7-Benzyl-4-hydroxy-8-oxo-7,8-dihydro-[2,7]naphthyridine-3-carboxylic acid [2-(3-isopropyl-ureido)-ethyl]-amide]	> 200
N#Cc1nc(C(=O)NC2CC2)c(O)c2ccn(Cc3ccccc3)c(=O)c12 [Example 39, 7-Benzyl-1-cyano-4-hydroxy-8-oxo-7,8-dihydro-[2,7]naphthyridine-3-carboxylic acid cyclopropylamide]	> 200
CNC(=O)c1nc(C#N)c2ccc(=O)n(Cc3ccccc3)c2c1O [Example 79, 1-Benzyl-5-cyano-8-hydroxy-2-oxo-1,2-dihydro-[1,6]naphthyridine-7-carboxylic acid methylamide]	> 200
O=C(O)CCNC(=O)c1nc(-c2ccncc2)c2c(cc(-c3ccccc3)c(=O)n2CC2CCCCC2)c1O [Example 198, 3-[(1-Cyclohexylmethyl-5-hydroxy-2-oxo-3-phenyl-8-pyridin-4-yl-1,2-dihydro-[1,7]naphthyridine-6-carbonyl)-amino]-propionic acid]	200

More lines, in order of falling IC50, values ahead:

IC50 [µM]	Structure (SMILES)
200	CN(CCNC(=O)c1nc(-c2ccccc2)c2c(cc(-c3ccccc3)c(=O)n2Cc2ccccc2)c1O)S(C)(=O)=O [Example 133, 1-Benzyl-5-hydroxy-2-oxo-3,8-diphenyl-1,2-dihydro-[1,7]naphthyridine-6-carboxylic acid [2-(methanesulfonyl-methyl-amino)-ethyl]amide]
200	O=C(O)CCNC(=O)c1nc(-c2cccnn2)c2c(cc(-c3ccccc3)c(=O)n2Cc2ccccc2)c1O [Example 203, 3-[(1-Benzyl-5-hydroxy-2-oxo-3-phenyl-8-pyridazin-3-yl-1,2-dihydro-[1,7]naphthyridine-6-carbonyl)-amino]-propionic acid]
199	Cc1ncccc1-c1nc(C(=O)NCCC(=O)O)c(O)c2cc(-c3ccccc3)c(=O)n(Cc3ccccc3)c12 [Example 178, 3-{[1-Benzyl-5-hydroxy-8-(2-methyl-pyridin-3-yl)-2-oxo-3-phenyl-1,2-dihydro-[1,7]naphthyridine-6-carbonyl]-amino}-propionic acid]
196	C[C@H](c1ccccc1)n1c(=O)c(-c2ccccc2)cc2c(O)c(C(=O)NCCC(=O)O)nc(-c3cccnc3)c21 [Example 176, (R)-3-{[5-Hydroxy-2-oxo-3-phenyl-1-(1-phenyl-ethyl)-8-pyridin-3-yl-1,2-dihydro-[1,7]naphthyridine-6-carbonyl]-amino}-propionic acid]
195	N#Cc1nc(C(=O)NCc2ccncc2)c(O)c2ccn(Cc3ccccc3)c(=O)c12 [Example 48, 7-Benzyl-1-cyano-4-hydroxy-8-oxo-7,8-dihydro-[2,7]naphthyridine-3-carboxylic acid (pyridin-4-ylmethyl)-amide]
182	N#Cc1nc(C(=O)NCC2(C(=O)O)CCC2)c(O)c2ccn(Cc3ccccc3)c(=O)c12 [Example 62, 1-{[(7-Benzyl-1-cyano-4-hydroxy-8-oxo-7,8-dihydro-[2,7]naphthyridine-3-carbonyl)-amino]-methyl}-cyclobutanecarboxylic acid]
177	N#Cc1nc(C(=O)NCc2ccnnc2)c(O)c2ccn(Cc3ccccc3)c(=O)c12 [Example 60, 7-Benzyl-1-cyano-4-hydroxy-8-oxo-7,8-dihydro-[2,7]naphthyridine-3-carboxylic acid (pyridazin-4-ylmethyl)-amide]
